According to US8114589B2, “Self-addressable self-assembling microelectronic integrated systems, component devices, mechanisms, methods, and procedures for molecular biological analysis and diagnostics” (Gamida For Life B.V., priority 1996, dated 2012):

Tests used:
[1] = test system: btrRCA5 to ATA5 capture oligonucleotide; assay: Accumulation and electronic hybridization in test buffers; details: for hybridization efficiency: [(specific hybridization)/(transported)] × 100; for transported: fluorescent signal at completion of electronic targeting; for transported / specific hybridization: value +/− SEM, 50 mM buffer; for support of sequence specific electronic hybridization: in words
Method: Microelectronic Chips, Permeation Layer and Instrumentation—These have been described previously with the following exception. The permeation layer employed herein has an underlayer of agarose beneath the top streptavidin-containing agarose layer (approximately one micron in total thickness). To make the underlayer, […] glyoxal agarose (2%) was spun on at 2000 rpms for 20 sec prior to the application of the streptavidin-agarose layer. In brief, the 5580 series APEX chip used for these experiments consists of a 5×5 array of […] circular microelectrodes with […] microelectrodes at each corner of the array. Chips were mounted on a micromanipulator stage and the microelectrodes activated by a power supply and appropriately controlled relay switches. Fluorescently labeled oligonucleotides on the chip were visualized using oblique illumination with two 594 nm HeNe lasers and the images were quantified using either NIH Image or IPLab Spectrum software packages.
Accumulation and Hybridization—Two biotinylated capture oligonucleotides, ATA5 and ATA4 were electronically transported and localized at adjacent microelectrodes. The solution was removed and the chip washed 3-4× in test buffer. Buffers employed in these studies are listed in Table 3 and were utilized at the listed pH values and concentrations presented.
The L-isomers of amino acids were used, unless otherwise noted. The chip was equilibrated in test buffer for 5-10 min. Then fresh buffer containing 10 nM BODIPY-Texas Red labeled RCA5 (btrRCA5), an oligonucleotide complementary to ATA5 but not ATA4 (RS paper) was applied.
The […] microelectrodes were employed as cathodes and one microelectrode within the array used as the corresponding anode. Accumulation was assessed by sourcing a 500 nA constant current to individual microelectrodes for 30 sec and monitoring the accumulation of fluorescence at the positively-biased (anode) site in the microelectrode array. Signal arising from non-fluorescent sources (ie. thermal noise, etc.) was subtracted. Experiments examining the effect of different currents upon signal accumulation were conducted in a similar fashion except that the applied current varied from 100 nA to 1 mA. […] For the comparison between conductivities of various buffers, the data is presented as fold increase over initial fluorescence to account for chip-to-chip variation as well as laser illumination variations in signal levels. For other experiments, the data is presented as attomol product versus time, after converting^2 the observed fluorescence intensity to moles of labeled oligonucleotide.
Following accumulation at one microelectrode location, the buffer was removed and fresh buffer containing btrRCA5 applied. An adjacent microelectrode was then sourced in a similar fashion. Upon completion, the buffer was removed and the chip washed 5-7× with test buffer without btrRCA5. The pair of previously targeted microelectrodes were then illuminated and the fluorescence present at each site quantified. Control experiments utilized a bodipy-Texas Red labeled oligonucleotide complementary to ATA4 to verify the integrity and concentration of the ATA4 capture oligonucleotide. Percent hybridization efficiency was calculated as follows: (complementary oligonucleotide signal−noncomplementary signal)/(signal present immediately prior to the end of the applied current)×100.

[2] = Buffer conductivity and pH measurements; format: physicochemical; design: conductivity: unit not given here; details: for conductivity: RT; for pH: in water at room temperature
Method: Buffer Conductivity and pH Measurements—The conductivities of test buffer solutions utilized for transport and hybridization were measured at RT using an Accumet 1.0 cm^−1 glass conductivity cell connected to an Accumet Model 50 pH/Ion/Conductivity meter (Fisher Scientific). Buffer pH values were obtained using an Accu-pHast variable temperature combination electrode and the same model meter.

[3] = cited from earlier work; for pl: Table 3
[4] = Buffer capacity, pH and conductivity of buffers used on the APEX chip; details: for PH: NaPO4: 20 mM adjusted to pH 7.4
DNA = DNA transport (accumulation) on the APEX chip; details: in words, same field conditions
[5] = Conductivity measurements of transport buffers; format: physicochemical; details: for Average/Std. Deviation / Measurement 1 / Measurement 2 / Measurement 3: conductivity
[6] = test system: btr-RCA5 fluorescent DNA probe; assay: Fluorescent DNA checkerboard addressing; details: bias reversed every 6 seconds, 80 micron microlocations

N[C@@H](Cc1c[nH]cn1)C(=O)O [L-histidine]
non-specific signal as compared to the amount of material transported [1]: 2.2% | hybridization efficiency [1]: 14.6 | transported [1]: 533 +/− 65 | specific hybridization [1]: 78.0 +/− 9.1 attomol | conductivity ([2]; 50 mM): 60.1 +/− 0.1 | pH ([2]; 50 mM): 7.65 | pl [3]: 7.47

O=P(O)(O)O [NaPO4, Sodium Phosphate]
conductivity [4]: 1,400.0 μS | PH [4]: 7.4 | transport (DNA): fair transport | conductance [5]: ~2.9 mS/cm | Average/Std. Deviation ([5]; listed as 1 mM NaPO4): 128.7 +/− 7.0 μS/cm | Measurement 1 ([5]; listed as 1 mM NaPO4): 122 μS/cm | Measurement 2 ([5]; listed as 1 mM NaPO4): 128 μS/cm | Measurement 3 ([5]; listed as 1 mM NaPO4): 136 μS/cm | Average/Std. Deviation ([5]; listed as 10 mM NaPO4): 1.44 +/− 0.04 mS/cm | Measurement 1 ([5]; listed as 10 mM NaPO4): 1.40 mS/cm | Measurement 2 ([5]; listed as 10 mM NaPO4): 1.44 mS/cm | Measurement 3 ([5]; listed as 10 mM NaPO4): 1.48 mS/cm | Average/Std. Deviation ([5]; listed as 20 mM NaPO4): 2.90 +/− 0.11 mS/cm | Measurement 1 ([5]; listed as 20 mM NaPO4): 2.90 mS/cm | Measurement 2 ([5]; listed as 20 mM NaPO4): 2.79 mS/cm | Measurement 3 ([5]; listed as 20 mM NaPO4): 3.00 mS/cm

NCCS(=O)(=O)O [Taurine]
conductivity [4]: 4.5 μS | PH [4]: 4.6 | transport (DNA): excellent transport

NCCC(=O)N[C@@H](Cc1cnc[nH]1)C(=O)O [carnosine]
hybridization efficiency [1]: 26.1 | transported [1]: 129 +/− 45 | specific hybridization [1]: 33.7 +/− 12.1 attomol | conductivity ([2]; 50 mM): 74.5 +/− 5.5 | pH ([2]; 50 mM): 8.07 | pl [3]: 8.17

Cc1cc(C)nc(C)c1 [collidine]
hybridization efficiency [1]: 3.7 | transported [1]: 382 +/− 63 | specific hybridization [1]: 14.1 +/− 4.6 attomol

N[C@@H](CCC(=O)O)C(=O)O [glutamic acid]
pI [3]: 3.22

NCC(=O)O [glycine]
support of sequence specific electronic hybridization [1]: neither GABA, b-alanine, nor glycine was capable of supporting sequence specific hybridization | conductivity ([2]; 50 mM): 2.5 +/− 0.2 | pH ([2]; 50 mM): 6.01 | conductivity ([2]; 250 mM): 7.8 +/− 0.5 | pH ([2]; 250 mM): 6.11 | pl [3]: 5.97

c1ccncc1 [pyridine]
transported [1]: 764 +/− 66 | specific hybridization [1]: 12.8 +/− 4.2 attomol | conductivity ([2]; 50 mM): 5.0 +/− 0.8 | pH ([2]; 50 mM): 8.17

NCCC(=O)O [β-Alanine]
conductivity [4]: 10.0 μS | PH [4]: 7.3 | support of sequence specific electronic hybridization [1]: neither GABA, b-alanine, nor glycine was capable of supporting sequence specific hybridization | conductivity ([2]; 50 mM): 3.6 +/− 0.6 | pH ([2]; 50 mM): 6.71 | pK1 ([3]; Table 2): pK1 - 3.6 | pK2 ([3]; Table 2): pK2 - 10.2 | pl [3]: 6.90 | transport (DNA): excellent transport

Tris-Borate [100 mM Tris-Borate]
conductivity [5]: 694 μS/cm

water [Milli-Q water]
checkerboard addressing and concentration of fluorescent DNA probe [6]: Rapid (6 second) checkerboard addressing and concentration of the btr-RCA5 fluorescent DNA probe was demonstrated
